Our source for the melting point values is patent US20110201577A1 (published 2011).

A word on the melting point: it is the temperature of the solid-liquid transition.

Turning to `CC(=O)N1[C@@H]2[C@@H]3OC(C)(C)O[C@@H]3C(Br)=C[C@@H]21`, the melting point is 128 °C. `CCOC(=O)C1=C[C@@H](OC(CC)CC)[C@H](NC(C)=O)[C@@H]2OC(C)(C)O[C@H]12` yielded a melting point of 112 to 115 °C.

In turn, `CCOC(=O)C1=CC=C[C@H](O)[C@@H]1O` gave a melting point of 48 °C.

With `CCOC(=O)[C@@]12C=C[C@H]([C@@H]3OC(C)(C)O[C@@H]31)N(C(C)=O)O2`, the melting point lay within 89 to 90 °C. The figure for `CCOC(=O)C1C[C@@H](O)[C@@H](NC(C)=O)[C@@H]2OC(C)(C)O[C@H]12` (stereo partly drawn) is 156 to 158 °C; for `CCOC(=O)C1C[C@@H](OS(C)(=O)=O)[C@@H](NC(C)=O)[C@@H]2OC(C)(C)O[C@H]12` (stereo partly drawn) it is 101 to 102 °C. The figure for `CCOC(=O)C1=C[C@@H](OS(C)(=O)=O)[C@@H](NC(C)=O)[C@@H]2OC(C)(C)O[C@H]12` is 163 to 165 °C; for `Cc1ccc(S(=O)(=O)N[C@H]2[C@@H]3OC(C)(C)O[C@@H]3C(Br)=C[C@H]2N=[N+]=[N-])cc1` it is 119 to 120 °C; for `Cc1ccc(S(=O)(=O)N[C@H]2[C@@H]3OC(C)(C)O[C@@H]3C(Br)=C[C@H]2NC(=O)OC(C)(C)C)cc1` it is 153 to 154 °C. The figure for `CCOC(=O)C1=C[C@@H]2[C@H]([C@@H]3OC(C)(C)O[C@H]13)N2S(=O)(=O)c1ccc(C)cc1` (stereo partly drawn) is 106 to 107 °C. In turn, `CC(=O)N[C@H]1C=C(Br)[C@H]2OC(C)(C)O[C@H]2[C@@H]1Br` returned a melting point of 181 °C. Under `CCOC(=O)C1=C[C@@H](OC(CC)CC)[C@H](NC(C)=O)[C@H](O)[C@@H]1O` (stereo in doubt) stands 154 °C.
